Source: patent US5674879A, “Compositions including and methods of using conformationally restricted angiotensin II antagonist” (G.D. Searle & Co., priority 1995, dated 1997)
Where two headings read alike, the source gives them in different places.

Experiments:
[1] = target: smooth muscle angiotensin II receptor; test: Assay A: Angiotensin II Binding Activity (displacement of 125I-angiotensin II, rat uterine membrane preparation); settings: 50% displacement of specifically bound 125I-AII, rat uterine membranes, 25° C., 60 min, pH 7.5
Method: Assay A: Angiotensin II Binding Activity
Compounds of the invention were tested for ability to bind to the smooth muscle angiotensin II receptor using a rat uterine membrane preparation. Angiotensin II (AII) was purchased from Peninsula Labs. ^125 I-angiotensin II (specific activity of 2200 Ci/mmol) was purchased from Du Pont-New England Nuclear. Other chemicals were obtained from Sigma Chemical Co. This assay was carried out according to the method of Douglas et al [Endocrinology, 106, 120-124 (1980)]. Rat uterine membranes were prepared from fresh tissue. All procedures were carried out at 4° C. Uteri were stripped of fat and homogenized in phosphate-buffered saline at pH 7.4 containing 5 mM EDTA. The homogenate was centrifuged at 1500×g for 20 min., and the supernatant was recentrifuged at 100,000×g for 60 min. The pellet was resuspended in buffer consisting of 2 mM EDTA and 50 mM Tris-HCl (pH 7.5) to a final protein concentration of 4 mg/ml. Assay tubes were charged with 0.25 ml of a solution containing 5 mM MgCl2, 2 mM EDTA, 0.5% bovine serum albumin, 50 mM Tris-HCl, pH 7.5 and ^125 I-AII (approximately 10^5 cpm) in the absence or in the presence of unlabelled ligand. The reaction was initiated by the addition of membrane protein and the mixture was incubated at 25° C. for 60 min. The incubation was terminated with ice-cold 50 mM Tris-HCl (pH 7.5) and the mixture was filtered to separate membrane-bound labeled peptide from the free ligand. The incubation tube and filter were washed with ice-cold buffer. Filters were assayed for radioactivity in a Micromedic gamma counter. Nonspecific binding was defined as binding in the presence of 10 μM of unlabelled AII. Specific binding was calculated as total binding minus nonspecific binding. The receptor binding affinity of an AII antagonist compound was indicated by the concentration (IC50) of the tested AII antagonist which gives 50% displacement of the total specifically bound ^125 I-AII from the high affinity AII receptor. Binding data were analyzed by a nonlinear least-squares curve fitting program.

[2] = target: T1, rabbit aortic rings (angiotensin II contraction) (Oryctolagus cuniculus, UniProt P34976); test: Assay B: In Vitro Vascular Smooth Muscle Response for AII (rabbit aortic rings); format: cell-based, rabbit (male New Zealand white); settings: rabbit aorta rings, antagonist 10^-5 M for 5 min, 37° C., read-out: Assay B pA2 (converted)
T1 construct: The thoracic aorta was removed, cleaned of adherent fat and connective tissue and then cut into 3-mm ring segments; from tissue; host or cells: rabbit thoracic aorta rings, endothelium removed
T1 sequence (P34976 1-359): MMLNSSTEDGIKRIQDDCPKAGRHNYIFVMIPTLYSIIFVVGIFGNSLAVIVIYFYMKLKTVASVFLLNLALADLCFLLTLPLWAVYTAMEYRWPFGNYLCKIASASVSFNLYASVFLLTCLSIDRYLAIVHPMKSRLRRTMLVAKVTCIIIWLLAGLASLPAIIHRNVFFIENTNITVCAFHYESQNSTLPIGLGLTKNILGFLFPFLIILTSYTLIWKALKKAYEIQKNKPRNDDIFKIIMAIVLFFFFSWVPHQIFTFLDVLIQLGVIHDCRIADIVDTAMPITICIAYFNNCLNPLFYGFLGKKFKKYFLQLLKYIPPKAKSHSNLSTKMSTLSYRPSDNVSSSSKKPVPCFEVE
Method: Assay B: In Vitro Vascular Smooth Muscle-Response for AII
The compounds of the invention were tested for antagonist activity in rabbit aortic rings. Male New Zealand white rabbits (2-2.5 kg) were sacrificed using an overdose of pentobarbital and exsanguinated via the carotid arteries. The thoracic aorta was removed, cleaned of adherent fat and connective tissue and then cut into 3-mm ring segments. The endothelium was removed from the rings by gently sliding a rolled-up piece of filter paper into the vessel lumen. The rings were then mounted in a water-jacketed tissue bath, maintained at 37° C., between moveable and fixed ends of a stainless steel wire with the moveable end attached to an FT03 Grass transducer coupled to a Model 7D Grass Polygraph for recording isometric force responses. The bath was filled with 20 ml of oxygenated (95% oxygen/5% carbon dioxide) Krebs solution of the following composition (mM): 130 NaCl, 15 NaHCO3, […], 1.2 NaH2 PO4, 1.2 MgSO4, 2.5 CaCl2, and 11.4 glucose. The preparations were equilibrated for one hour before approximately one gram of passive tension was placed on the rings. Angiotensin II concentration-response curves were then recorded (3×10^-10 to 1×10^-5 M). Each concentration of AII was allowed to elicit its maximal contraction, and then AII was washed out repeatedly for 30 minutes before rechallenging with a higher concentration of AII. Aorta rings were exposed to the test antagonist at 10^-5 M for 5 minutes before challenging with AII. Adjacent segments of the same aorta ring were used for all concentration-response curves in the presence or absence of the test antagonist. The effectiveness of the test compound was expressed in terms of pA2 values and were calculated according to H. O. Schild [Br. J. Pharmacol. Chemother., 2, 189-206 (1947)]. The pA2 value is the concentration of the antagonist which increases the IC50 value for AII by a factor of two. Each test antagonist was evaluated in aorta rings from two rabbits.

[3] = first of two values in the cell (rings from two rabbits)
[4] = second of two values in the cell (rings from two rabbits)

SMILES | IC50 [1] [nM] | Kb [2, 3] [nM] | Kb [2, 4] [nM]
CCCCc1ncc2n1[C@@H](c1ccc(-c3ccccc3-c3nn[nH]n3)cc1)CC[C@H]2O (relative stereo) [Example 13, 3-Butyl-5,6,7,8-tetrahydro-5-[2'-(1H-tetrazol-5-yl)[1,1'-biphenyl]-4-yl]imidazo[1,5-a]pyridin-cis-8-ol] | 23 | 100 | 138
CCCCc1ncc2n1[C@@H](c1ccc(-c3ccccc3-c3nn[nH]n3)cc1)CC[C@@H]2O (relative stereo) [Example 14, 3-Butyl-5,6,7,8-tetrahydro-5-[2'-(1H-tetrazol-5-yl)[1,1'-biphenyl]-4-yl]imidazo[1,5-a]pyridin-trans-8-ol] | 120 | 331 | 550
CCCCc1nc(CCCC)n2c1C=CCC2c1ccc(-c2ccccc2-c2nnn[nH]2)cc1 (stereo not shown) [Example 1, 1,3-Dibutyl-5,6-dihydro-5-[2'-(1H-tetrazol-5-yl)[1,1'-biphenyl]-4-yl]imidazo[1,5-a]pyridine] | 190 | 398 | 537
CCCCc1nc(CCCC)n2c1C=C(Br)CC2c1ccc(-c2ccccc2-c2nnn[nH]2)cc1 (stereo not shown) [Example 2, 7-Bromo-1,3-dibutyl-5,6-dihydro-5-[2'-(1H-tetrazol-5-yl)[1,1'-biphenyl]-4-yl]imidazo[1,5-a]pyridine] | 2100 | 1450 | 263
CCCCc1nc(CCCC)n2c1CCCC2c1ccc(-c2ccccc2-c2nnn[nH]2)cc1 (stereo not shown) [Example 3, 1,3-Dibutyl-5,6,7,8-tetrahydro-5-[2'-(1H-tetrazol-5-yl)[1,1'-biphenyl]-4-yl]imidazo[1,5-a]pyridine] | 270 | 53.7 | 224
CCCCc1nc(CCCC)n2c1C(O)CCC2c1ccc(-c2ccccc2-c2nnn[nH]2)cc1 (stereo not shown) [Example 4, 1,3-Dibutyl-5,6,7,8-tetrahydro-5-[2'-(1H-tetrazol-5-yl)[1,1'-biphenyl]-4-yl]imidazo[1,5-a]pyridin-8-ol] | 51 | 22.4 | 14.5
CCCCc1nc(CCCC)n2c1C(=O)CCC2c1ccc(-c2ccccc2-c2nn[nH]n2)cc1 (stereo not shown) [Example 5, 1,3-Dibutyl-5,6-dihydro-5-[2'-(1H-tetrazol-5-yl)[1,1'-biphenyl]-4-yl]imidazo[1,5-a]pyridin-8(5H)-one] | 60 | 13.8 | 7.08
CCCCc1nc(CCCC)n2c1C(c1ccccc1)=CCC2c1ccc(-c2ccccc2-c2nnn[nH]2)cc1 (stereo not shown) [Example 6, 1,3-Dibutyl-5,6-dihydro-8-phenyl-5-[2'-(1H-tetrazol-5-yl)[1,1'-biphenyl]-4-yl]imidazo[1,5-a]pyridine] | 2800 | – | –
CCCCc1nc(CCCC)n2c1C(=CC(=O)O)CCC2c1ccc(-c2ccccc2-c2nnn[nH]2)cc1 (stereo not shown) [Example 7, [1,3-Dibutyl-6,7-dihydro-5-[2'-(1H-tetrazol-5-yl)[1,1'-biphenyl]-4-yl]imidazo[1,5-a]pyridin-8(5H)-ylidene]acetic acid] | 15000 | – | –
CCCCc1nc(CCCC)n2c1C(N1C(=O)CCC1=O)CCC2c1ccc(-c2ccccc2-c2nnn[nH]2)cc1 (stereo not shown) [Example 8, 1-[1,3-Dibutyl-5,6,7,8-tetrahydro-5-[2'-(1H-tetrazol-5-yl)[1,1'-biphenyl]-4-yl]imidazo[1,5-a]pyridin-8-yl]-2,5-pyrrolidinedione] | 27 | – | –
CCCCc1nc(CCCC)n2c1C(NC(=O)CCC(=O)NN)CCC2c1ccc(-c2ccccc2-c2nn[nH]n2)cc1 (stereo not shown) [Example 9] | 44 | 70.8 | 57.5
CCCCc1nc(CCCC)n2c1C=CCCC2c1ccc(-c2ccccc2-c2nnn[nH]2)cc1 (stereo not shown) [Example 10, 1,3-Dibutyl-6,7-dihydro-5-[2'-(1H-tetrazol-5-yl)[1,1'-biphenyl]-4-yl]-5H-imidazo[1,5-a]azepine] | 330 | – | –
CCCCc1ncc2n1C(c1ccc(-c3ccccc3-c3nnn[nH]3)cc1)CC=C2 (stereo not shown) [Example 11, 3-Butyl-5,6-dihydro-5-[2'-(1H-tetrazol-5-yl)[1,1'-biphenyl]-4-yl]imidazo[1,5-a]pyridine] | 120 | – | –
CCCCc1ncc2n1C(c1ccc(-c3ccccc3-c3nn[nH]n3)cc1)CCC2=O (stereo not shown) [Example 12, 3-Butyl-5,6-dihydro-5-[2'-(1H-tetrazol-5-yl)[1,1'-biphenyl]-4-yl]imidazo[1,5-a]pyridin-8(5H)-one] | 110 | 219 | 89.1

Next, values leading:

IC50 [1] [nM] | Kb [2, 3] [nM] | Kb [2, 4] [nM] | SMILES
67 | 70.8 | 141 | CCCCc1ncc2n1[C@@H](c1ccc(-c3ccccc3-c3nn[nH]n3)cc1)CC[C@H]2CC(=O)OC(C)(C)C (relative stereo) [Example 19, 1,1-Dimethylethyl 3-butyl-5,6,7,8-tetrahydro-5-[2'-(1H-tetrazol-5-yl)[1,1'-biphenyl]-4-yl]imidazo[1,5-a]pyridin-cis-8-acetate]
240 | 129 | 141 | CCCCc1ncc2n1[C@@H](c1ccc(-c3ccccc3-c3nn[nH]n3)cc1)CC[C@H]2CC(=O)O (relative stereo) [Example 20, 3-Butyl-5,6,7,8-tetrahydro-5-[2'-(1H-tetrazol-5-yl)[1,1'-biphenyl]-4-yl]imidazo[1,5-a]pyridin-cis-8-acetic acid]
36 | – | – | CCCCc1ncc2n1[C@H](c1ccc(-c3ccccc3-c3nnn[nH]3)cc1)CC[C@@H]2OCc1ccccc1 (relative stereo) [Example 24, 3-Butyl-5,6,7,8-tetrahydro-5-[2'-(1H-tetrazol-5-yl)[1,1'-biphenyl]-4-yl]-cis-8-phenylmethoxy-imidazo[1,5-a]pyridine]
160 | 347 | 186 | CCCCc1ncc2n1C(c1ccc(-c3ccccc3-c3nnn[nH]3)cc1)CCC2=CC(=O)OC(C)(C)C (stereo not shown) [Example 15, 1,1-Dimethylethyl [3-butyl-6,7-dihydro-5-[2'-(1H-tetrazol-5-yl)[1,1'-biphenyl]-4-yl]imidazo[1,5-a]pyridin-8(5H)-ylidene]acetate]
440 | 7.76 | 16.2 | CCCCc1ncc2n1C(c1ccc(-c3ccccc3-c3nnn[nH]3)cc1)CCC2=CC(=O)O (stereo not shown) [Example 16, [3-Butyl-6,7-dihydro-5-[2'-(1H-tetrazol-5-yl)[1,1'-biphenyl]-4-yl]imidazo[1,5-a]pyridin-8(5H)-ylidene]acetic acid]
200 | – | – | CCCCc1ncc2n1C(c1ccc(-c3ccccc3-c3nnn[nH]3)cc1)CC=C2CC(=O)O (stereo not shown) [Example 18, 3-Butyl-5,6-dihydro-5-[2'-(1H-tetrazol-5-yl)[1,1'-biphenyl]-4-yl]imidazo[1,5-a]pyridin-8-acetic acid]
